Source: article PMC3224403 (Indian Journal of Pharmaceutical Sciences, 2011)

Assays:
Format in all cases: in vivo
[1] = system: maximum electroshock seizure; assay: Maximum electroshock seizure; conditions: dose 200 mg/Kg b.w. (5e, 5f: 150); Fischer's exact test
[2] = system: cotton pellet induced granulation tissue formation; assay: Cotton pellet induced granulation tissue formation method; conditions: dose 200 mg/Kg b.w. (5e, 5f: 150)
adrenal weight = assay: Adrenal weight change method; conditions: suppression of adrenal weights; dose 200 mg/Kg b.w. (5e, 5f: 150)
[3] = system: carrageenan-induced rat paw edema; assay: Carrageenan-induced rat paw edema method
ulcers = assay: Ulcerogenecity, arbitrary ulcer scoring system; conditions: dose 200 mg/Kg b.w. (5e, 5f: 150); p in parentheses
[4] = system: radiant heat induced rat tail flick; assay: Radiant heat induced rat tail flick method; conditions: dose 200 mg/Kg b.w. (5e, 5f: 150)

Row | Compound | Anticonvulsant activity, MES protection [1] [%] | Antiinflammatory activity Percentage Inhibition, Cotton pellet method [2] [%] | Antiinflammatory activity Percentage Inhibition, Adrenal weight method (adrenal weight) [%] | Antiinflammatory activity Percentage Inhibition, Carrageenan method, 1 h ([3]; 1 h, dose 200 mg/Kg b.w. (5e, 5f: 150)) [%] | Antiinflammatory activity Percentage Inhibition, Carrageenan method, 3 h ([3]; 3 h, dose 200 mg/Kg b.w. (5e, 5f: 150)) [%] | Antiinflammatory activity, carrageenan-induced rat paw edema, after 6 h ([3]; 6 h as printed in the text) [%] | Ulcer index (ulcers) | Analgesic activity percent protection, Rat tail flick method [4] [%]
1 | O=C1NC(=O)C(c2ccccc2)(c2ccccc2)N1 [phenytoin sodium] | 100 |  |  |  |  |  |  | 
2 | CC(=O)Oc1ccccc1C(=O)O [aspirin] |  | 41.88 | 50.13 | 54.84 | 55.05 | 73.81 | 43.33 | 49.39
